According to patent US20240116946A1 (Gilead Sciences, Inc., priority 2022, published 2024):
Where two headings read alike, the source gives them in different places.

Legend:
SARS-CoV-2-NLuc = assay: microbe, parasite or virus in culture; assay type: cell-based, SARS Coronavirus 2
[1] = molecular target: recombinant SARS-CoV-2 Main protease (Mpro) (Severe acute respiratory syndrome coronavirus 2 (2019-nCoV) (SARS-CoV-2), UniProt P0DTD1); assay: Cov Mpro Biochemical IC50 Assay; settings: read-out: MPro IC50
[2] = Severe acute respiratory syndrome coronavirus, 48 h, read-out: MPro EC50
[3] = recombinant SARS-CoV-2 Mpro, fluorogenic peptide substrate
[4] = recombinant SARS-CoV-2 Mpro 7.5 nM, fluorogenic peptide substrate 40 μM
[5] = Severe acute respiratory syndrome coronavirus, 48 h; read-out: MPro EC50

Row | SMILES | EC50 (SARS-CoV-2-NLuc; [2]) [nM] | IC50 [1, 3] [nM] | EC50 (SARS-CoV-2-NLuc; read-out: MPro EC50) [nM] | IC50 [1, 4] [nM] | EC50 (SARS-CoV-2-NLuc; [5]) [nM]
1 | COc1ccc(C#N)c(-c2cc3[nH]c(=O)n(-c4cncc5ccc(C(F)F)cc45)c(=O)c3s2)c1 [Example 224] | 124 | 10.2 | – | – | –
2 | COc1cc(-c2cc3[nH]c(=O)n(-c4cncc5cnn(C)c45)c(=O)c3s2)c(Cl)cc1F (single isomer, unassigned) [Example 640, 6-(2-chloro-4-fluoro-5-methoxy-phenyl)-3-(1-methylpyrazolo[4,3-c]pyridin-7-yl)-1H-thieno[3,2-d]pyrimidine-2,4-dione] | – | – | 3.48 | < 4.26 | –
3 | COc1cc(-c2cc3[nH]c(=O)n(-c4cncc5cc(C(=O)N(C)C)sc45)c(=O)c3s2)c(Cl)cc1F [Example 1010, 7-[6-(2-chloro-4-fluoro-5-methoxy-phenyl)-2,4-dioxo-1H-thieno[3,2-d]pyrimidin-3-yl]-N,N-dimethyl-thieno[3,2-c]pyridine-2-carboxamide] | 69.2 | – | – | 3.29 | –
4 | O=c1[nH]c2cc(-c3ccccc3Cl)ccc2c(=O)n1-c1cnccc1N1CCNCC1 [Example 116, 7-(2-chlorophenyl)-3-(4-(piperazin-1-yl)pyridin-3-yl)quinazoline-2,4(1H,3H)-dione] | – | 797 | – | – | 3200
5 | COc1cc(-c2cc3[nH]c(=O)n(-c4cncc5ccccc45)c(=O)c3cc2OC)c(Cl)cc1F (single isomer, unassigned) [Example 1055, 7-(2-chloro-4-fluoro-5-methoxyphenyl)-3-(isoquinolin-4-yl)-6-methoxyquinazoline-2,4(1H,3H)-dione] | – | – | 460 | 459 | –
6 | O=c1[nH]c2cc(-c3ccccc3Cl)ccc2c(=O)n1-c1cccnc1 [Example 122] | 3910 | 1010 | – | – | –
7 | COc1ccc2cncc(-n3c(=O)[nH]c4cc(-c5c(Cl)cccc5-c5cn6ncnc6c6c5CCC6)sc4c3=O)c2c1 [Example 564] | 52.5 | – | – | 14.6 | –
8 | O=c1[nH]c2sc(-c3ccccc3)nc2c(=O)n1-c1cncc2ccccc12 [Example 158, 6-(isoquinolin-4-yl)-2-phenylthiazolo[5,4-d]pyrimidine-5,7(4H,6H)-dione] | 19100 | 133 | – | – | –
9 | COCc1ccccc1-c1cc2[nH]c(=O)n(-c3cncc4ccccc34)c(=O)c2s1 [Example 17] | 160 | 35.1 | – | – | –
10 | Cc1cc(-c2cc3c(s2)c(=O)n(-c2cncc4cnn(C)c24)c(=O)n3CCC#N)c(C#N)cc1F [Example 779] | 67.3 | – | – | 24.1 | –
11 | COc1ccc(Cl)c(-c2cc3[nH]c(=O)n(-c4cncc5ccn(C)c45)c(=O)c3s2)c1 [Example 455] | 7.02 | – | – | 7.26 | –
12 | COc1cc(-c2cc3[nH]c(=O)n(-c4cc(C)cnn4)c(=O)c3s2)c(Cl)cc1F [Example 746] | 54.3 | – | – | 4.17 | –
13 | O=c1[nH]c2cc(-c3ccccc3Cl)sc2c(=O)n1-c1cncc2cnccc12 [Example 584] | 31.9 | – | – | 12.9 | –
14 | COc1ccc2cncc(-n3c(=O)[nH]c4cc(-c5ccccc5Cl)ccc4c3=O)c2c1 [Example 237] | 143 | 87 | – | – | –
15 | Cc1ccc2cncc(-n3c(=O)[nH]c4cc(-c5ccccc5Cl)sc4c3=O)c2c1 [Example 106, 6-(2-chlorophenyl)-3-(6-methylisoquinolin-4-yl)thieno[3,2-d]pyrimidine-2,4(1H,3H)-dione] | – | 23.7 | – | – | 73
16 | COCc1cccc(Cl)c1-c1ccc2c(=O)n(-c3cncc4ccccc34)c(=O)[nH]c2c1 [Example 100] | 448 | 326 | – | – | –
17 | COc1cc(-c2cc3[nH]c(=O)n(-c4cncc5cnn(C)c45)c(=O)c3s2)c(C)cc1Cl [Example 666] | – | – | – | 24 | 55.6
18 | O=c1[nH]c2cc(-c3ccccc3OCc3ccccc3)ccc2c(=O)n1-c1cncc2ccccc12 [Example 57] | 1520 | 5450 | – | – | –
19 | COc1cc2c(=O)n(-c3cncc4ccccc34)c(=O)[nH]c2cc1-c1c(Cl)cccc1OC [Example 77] | – | 131 | – | – | 115
20 | COc1ccc(C)c(-c2ccc3c(=O)n(-c4cncc5ccccc45)c(=O)[nH]c3c2)c1 [Example 301] | 173 | 259 | – | – | –
21 | O=C1C[C@@H](Nc2ccc3cncc(-n4c(=O)[nH]c5cc(-c6ccccc6Cl)sc5c4=O)c3c2)CN1 [Example 405] | 2930 | – | – | 12 | –
22 | Cc1nocc1-c1cccc(Cl)c1-c1ccc2c(=O)n(-c3cncc4ccccc34)c(=O)[nH]c2c1 [Example 259] | 113 | 189 | – | – | –
23 | Cn1cc(-c2cccc(Cl)c2-c2ccc3c(=O)n(-c4cncc5ccccc45)c(=O)[nH]c3c2)cn1 [Example 144] | 68.2 | 95.4 | – | – | –
24 | COc1cc(-c2cc3[nH]c(=O)n(-c4cncc5ccc(C)nc45)c(=O)c3s2)c(Cl)cc1F [Example 461, 6-(2-chloro-4-fluoro-5-methoxyphenyl)-3-(2-methyl-1,6-naphthyridin-8-yl)thieno[3,2-d]pyrimidine-2,4(1H,3H)-dione] | – | – | – | 8.07 | 10

Row | SMILES | EC50 (SARS-CoV-2-NLuc; [2]) [nM] | IC50 [1, 3] [nM] | EC50 (SARS-CoV-2-NLuc; read-out: MPro EC50) [nM] | IC50 [1, 4] [nM] | EC50 (SARS-CoV-2-NLuc; [5]) [nM]
25 | COc1cc(-c2cc3[nH]c(=O)n(-c4cnnc(C)c4)c(=O)c3s2)c(Cl)cc1F [Example 714] | > 1000 | – | – | > 1000 | –
26 | COc1ccc(Cl)c(-c2ccc3c(=O)n(-c4cncc5ccc(N6CCOCC6)cc45)c(=O)[nH]c3c2)c1 [Example 430] | – | – | – | 11.8 | 18.5
27 | COc1cc(-c2cc3[nH]c(=O)n(-c4cncc5cccc(Cl)c45)c(=O)c3s2)c(Cl)cc1F [Example 1078] | – | – | – | 8.83 | 9.65
28 | O=C1NCc2cc(-c3cccc(Cl)c3-c3ccc4c(=O)n(-c5cncc6ccccc56)c(=O)[nH]c4c3)ccc21 [Example 360] | 42.1 | 19.4 | – | – | –
29 | Cc1c(F)cncc1-n1c(=O)c2sc(-c3ccccc3C#N)cc2n(CCC#N)c1=O [Example 848] | – | – | – | 34.5 | 137
30 | COc1ccc(Cl)c(-c2ccc3c(=O)n(-c4cncc5ccc(N6CC7(COCCO7)C6)cc45)c(=O)[nH]c3c2)c1 [Example 412] | – | – | – | 10.8 | 38.3
31 | COc1cc(-c2cc3c(s2)c(=O)n(-c2cncc4ccccc24)c(=O)n3CCC#N)c(Cl)cc1F [Example 632, 3-(6-(2-chloro-4-fluoro-5-methoxyphenyl)-3-(isoquinolin-4-yl)-2,4-dioxo-3,4-dihydrothieno[3,2-d]pyrimidin-1(2H)-yl)propanenitrile] | – | – | – | 6.13 | 3.11
32 | COc1ccc(C#N)c(-c2cc3[nH]c(=O)n(-c4cncc5cc(C(C)(C)O)sc45)c(=O)c3s2)c1 [Example 514] | 568 | – | – | 15.8 | –
33 | Cc1c(Cl)cccc1-c1cc2[nH]c(=O)n(-c3cncc4ccccc34)c(=O)c2s1 [Example 12] | 943 | 7450 | – | – | –
34 | COc1cc(-c2cc3[nH]c(=O)n(-c4cncc(C)c4C)c(=O)c3s2)c(Cl)cc1F [Example 747] | 4.19 | – | – | 4.63 | –
35 | O=c1[nH]c2cc(-c3ccccc3Cl)sc2c(=O)n1-c1cncc2ccc(N3CCC(F)(F)C3)cc12 [Example 413] | 66.8 | – | – | 5.46 | –
36 | Cn1cncc1-c1cccc(Cl)c1-c1cc2[nH]c(=O)n(-c3cncc4ccccc34)c(=O)c2s1 [Example 525] | 81.2 | – | – | 10.4 | –
37 | C#Cc1ccccc1-c1ccc2c(=O)n(-c3cncc4ccccc34)c(=O)[nH]c2c1 [Example 28] | 536 | 340 | – | – | –
38 | COc1cc(F)cc(Cl)c1-c1ccc2c(=O)n(-c3cncc4ccccc34)c(=O)[nH]c2c1 [Example 651] | 135 | – | – | 336 | –
39 | Cc1c(-c2ccccc2Cl)sc2c1c(=O)n(-c1cncc3ccccc13)c(=O)n2CC1CCCC1 [Example 64] | – | 28400 | – | – | 3140
40 | COc1cc(-c2cc3c(s2)c(=O)n(-c2cncc4cnn(C)c24)c(=O)n3C2CC2C#N)c(Cl)cc1F (stereo not shown) [Example 1005, 2-(6-(2-chloro-4-fluoro-5-methoxyphenyl)-3-(1-methyl-1H-pyrazolo[4,3-c]pyridin-7-yl)-2,4-dioxo-3,4-dihydrothieno[3,2-d]pyrimidin-1(2H)-yl)cyclopropane-1-carbonitrile] | – | – | 52.9 | 38.5 | –
41 | COc1cc(-c2cc3c(s2)c(=O)n(-c2cncc4ccccc24)c(=O)n3CC2(C#N)CC2)c(Cl)cc1F [Example 631, 1-[[6-(2-chloro-4-fluoro-5-methoxy-phenyl)-3-(4-isoquinolyl)-2,4-dioxo-thieno[3,2-d]pyrimidin-1-yl]methyl]cyclopropanecarbonitrile] | – | – | – | 12.6 | 4.96
42 | COc1cc(-c2cc3[nH]c(=O)n(-c4cncc5c4c(C)cn5C)c(=O)c3s2)c(Cl)cc1F [Example 706] | 6.53 | – | – | 5.93 | –
43 | CC(C)Oc1ccc(Cl)c(-c2cc3[nH]c(=O)n(-c4cncc5ccccc45)c(=O)c3s2)c1 [Example 346] | 239 | 73.5 | – | – | –
44 | N#CCCn1c(=O)n(-c2cnccn2)c(=O)c2sc(-c3ccc(F)cc3C#N)cc21 [Example 829] | – | – | – | 420 | > 1000
45 | COc1cc(-c2cc3c(s2)c(=O)n(-c2cnccc2C)c(=O)n3CCC#N)c(Cl)cc1F [Example 987, 3-[6-(2-chloro-4-fluoro-5-methoxy-phenyl)-3-(4-methyl-3-pyridyl)-2,4-dioxo-thieno[3,2-d]pyrimidin-1-yl]propanenitrile] | 5.97 | – | – | 5.68 | –
46 | COc1cc(-c2cc3c(s2)c(=O)n(-c2cncc4nn(CC(F)(F)F)c(C)c24)c(=O)n3CCC#N)c(Cl)cc1F [Example 918] | 43.1 | – | – | 24.3 | –
47 | COc1ccc2cncc(-n3c(=O)[nH]c4cc(-c5c(Cl)cccc5-c5cc(C)c6ncnn6c5)sc4c3=O)c2c1 [Example 562, 6-[2-chloro-6-(8-methyl-[1,2,4]triazolo[1,5-a]pyridin-6-yl)phenyl]-3-(6-methoxy-4-isoquinolyl)-1H-thieno[3,2-d]pyrimidine-2,4-dione] | 5.06 | – | – | < 2.54 | –
